Experiment in all cases: Large panel kinase profiling
Common to all, as to type: biochemical
Common to all, as to conditions: 1 μM test article, 1 mM ATP

The target in test [1] is T1, ZAP70 (Homo sapiens, UniProt P43403).
T1 construct: AssayQuant Technologies, Inc. (contract laboratory that ran the panel)
T1 sequence (P43403 1-619): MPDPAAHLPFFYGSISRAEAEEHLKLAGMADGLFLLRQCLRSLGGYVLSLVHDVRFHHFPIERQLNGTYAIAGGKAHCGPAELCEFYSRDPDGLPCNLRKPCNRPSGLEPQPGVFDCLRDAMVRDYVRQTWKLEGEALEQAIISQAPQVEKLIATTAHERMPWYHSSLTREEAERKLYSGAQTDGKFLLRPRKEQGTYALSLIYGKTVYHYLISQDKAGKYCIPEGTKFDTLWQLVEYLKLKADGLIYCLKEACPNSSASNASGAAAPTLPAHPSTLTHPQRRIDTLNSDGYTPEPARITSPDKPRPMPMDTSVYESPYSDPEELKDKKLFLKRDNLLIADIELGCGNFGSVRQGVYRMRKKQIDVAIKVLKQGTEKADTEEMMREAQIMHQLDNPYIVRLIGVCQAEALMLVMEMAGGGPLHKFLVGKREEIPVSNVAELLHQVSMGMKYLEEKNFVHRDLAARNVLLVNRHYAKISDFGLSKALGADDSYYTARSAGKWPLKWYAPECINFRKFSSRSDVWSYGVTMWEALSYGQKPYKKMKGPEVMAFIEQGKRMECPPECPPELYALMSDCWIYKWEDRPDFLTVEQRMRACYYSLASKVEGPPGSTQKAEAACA
The method, boiled down: (§1)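 CSox-Sensor fluorescence readout; test article 1 μM, ATP 1 mM, 30° C.; kinetic reads at 1-min intervals, Ex 360/Em 485 nm.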

For test [2], the target named is T2, BTK (Homo sapiens, UniProt Q06187).
T2 construct: purchased Cama
T2 sequence (Q06187 whole entry): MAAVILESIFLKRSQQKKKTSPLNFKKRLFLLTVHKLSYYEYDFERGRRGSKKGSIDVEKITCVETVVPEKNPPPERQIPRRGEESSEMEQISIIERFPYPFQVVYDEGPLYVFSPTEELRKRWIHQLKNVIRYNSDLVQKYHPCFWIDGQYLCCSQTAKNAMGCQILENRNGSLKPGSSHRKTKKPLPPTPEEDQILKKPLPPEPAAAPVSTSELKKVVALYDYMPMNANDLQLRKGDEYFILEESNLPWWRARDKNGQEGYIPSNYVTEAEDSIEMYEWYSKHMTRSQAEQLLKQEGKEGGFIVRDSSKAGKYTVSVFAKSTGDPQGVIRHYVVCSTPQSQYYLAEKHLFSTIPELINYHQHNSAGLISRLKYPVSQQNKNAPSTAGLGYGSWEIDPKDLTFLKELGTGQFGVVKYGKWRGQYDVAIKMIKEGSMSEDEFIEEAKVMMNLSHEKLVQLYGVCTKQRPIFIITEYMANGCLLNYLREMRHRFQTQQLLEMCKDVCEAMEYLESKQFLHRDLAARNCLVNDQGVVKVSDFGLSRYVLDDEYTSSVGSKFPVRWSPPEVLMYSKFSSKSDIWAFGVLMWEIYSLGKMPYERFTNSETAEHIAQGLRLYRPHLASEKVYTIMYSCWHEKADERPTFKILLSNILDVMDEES
The gist of the method:
as §1

Test [3] has as its target ERBB4/HER4 (Homo sapiens, UniProt Q15303). The gist of the method: as §1
In test [4] the target is T3, CDK4/D3 (Homo sapiens, UniProt P11802).
T3 construct: AssayQuant Technologies, Inc. (ran the panel)
T3 sequence (P11802 whole entry, species assumed): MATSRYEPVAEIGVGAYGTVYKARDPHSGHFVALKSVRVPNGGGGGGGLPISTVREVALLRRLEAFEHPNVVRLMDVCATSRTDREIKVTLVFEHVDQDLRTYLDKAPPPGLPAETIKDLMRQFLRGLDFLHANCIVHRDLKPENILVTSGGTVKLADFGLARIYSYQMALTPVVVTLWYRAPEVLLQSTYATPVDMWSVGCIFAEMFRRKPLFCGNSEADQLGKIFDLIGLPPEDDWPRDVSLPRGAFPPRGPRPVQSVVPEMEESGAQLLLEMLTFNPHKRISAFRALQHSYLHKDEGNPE
T3 sequence (P30281 whole entry partner, species assumed): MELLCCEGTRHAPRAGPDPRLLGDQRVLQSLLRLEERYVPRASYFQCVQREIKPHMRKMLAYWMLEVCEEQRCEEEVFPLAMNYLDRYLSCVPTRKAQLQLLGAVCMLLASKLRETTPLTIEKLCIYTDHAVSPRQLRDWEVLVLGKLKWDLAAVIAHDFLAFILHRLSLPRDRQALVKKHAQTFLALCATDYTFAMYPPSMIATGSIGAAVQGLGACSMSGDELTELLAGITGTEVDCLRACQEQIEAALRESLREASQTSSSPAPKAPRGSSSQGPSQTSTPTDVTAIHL
The gist of the method:
as §1

In test [5] the target is T4, CLK1 (Homo sapiens, UniProt P49759).
T4 construct: AssayQuant Technologies, Inc. (service laboratory)
T4 sequence (P49759 whole entry): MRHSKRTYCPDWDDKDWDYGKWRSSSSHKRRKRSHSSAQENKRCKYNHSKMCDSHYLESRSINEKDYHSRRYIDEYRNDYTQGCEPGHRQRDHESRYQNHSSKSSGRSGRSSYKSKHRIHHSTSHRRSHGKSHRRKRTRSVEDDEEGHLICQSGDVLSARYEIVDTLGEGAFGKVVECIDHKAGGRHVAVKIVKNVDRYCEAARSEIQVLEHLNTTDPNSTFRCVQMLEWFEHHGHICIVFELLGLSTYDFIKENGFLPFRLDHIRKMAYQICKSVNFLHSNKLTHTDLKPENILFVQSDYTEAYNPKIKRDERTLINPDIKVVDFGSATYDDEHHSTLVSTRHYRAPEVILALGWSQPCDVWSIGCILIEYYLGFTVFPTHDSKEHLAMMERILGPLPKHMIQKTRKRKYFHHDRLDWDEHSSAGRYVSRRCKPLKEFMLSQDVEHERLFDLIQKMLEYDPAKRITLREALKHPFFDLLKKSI
The method, boiled down: as §1

Test [6] addresses T5, GRK2 (Homo sapiens, UniProt P25098).
T5 construct: AssayQuant Technologies, Inc. (service provider)
T5 sequence (P25098 1-689): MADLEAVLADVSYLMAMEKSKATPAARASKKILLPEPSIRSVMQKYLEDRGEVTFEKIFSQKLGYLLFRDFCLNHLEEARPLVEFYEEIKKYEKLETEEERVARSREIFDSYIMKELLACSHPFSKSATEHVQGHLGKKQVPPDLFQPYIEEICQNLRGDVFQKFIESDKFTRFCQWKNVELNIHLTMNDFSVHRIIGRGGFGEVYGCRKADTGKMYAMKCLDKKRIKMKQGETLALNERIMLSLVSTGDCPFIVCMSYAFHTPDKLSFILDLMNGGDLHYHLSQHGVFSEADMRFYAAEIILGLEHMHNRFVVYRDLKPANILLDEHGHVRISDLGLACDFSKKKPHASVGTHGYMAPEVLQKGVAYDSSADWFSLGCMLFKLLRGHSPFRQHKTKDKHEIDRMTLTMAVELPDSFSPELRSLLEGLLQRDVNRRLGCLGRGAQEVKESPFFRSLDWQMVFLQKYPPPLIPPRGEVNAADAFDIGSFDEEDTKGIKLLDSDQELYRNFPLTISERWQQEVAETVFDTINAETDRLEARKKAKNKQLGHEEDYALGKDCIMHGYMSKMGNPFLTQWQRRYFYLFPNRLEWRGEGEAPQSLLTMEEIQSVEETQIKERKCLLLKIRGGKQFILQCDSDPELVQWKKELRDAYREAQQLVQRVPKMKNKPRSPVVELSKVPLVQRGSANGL
The gist of the method:
as §1

In test [7] the target is T6, CHUK/IKKA (Homo sapiens, UniProt O15111).
T6 construct: AssayQuant Technologies, Inc. (ran the panel)
T6 sequence (O15111 1-745): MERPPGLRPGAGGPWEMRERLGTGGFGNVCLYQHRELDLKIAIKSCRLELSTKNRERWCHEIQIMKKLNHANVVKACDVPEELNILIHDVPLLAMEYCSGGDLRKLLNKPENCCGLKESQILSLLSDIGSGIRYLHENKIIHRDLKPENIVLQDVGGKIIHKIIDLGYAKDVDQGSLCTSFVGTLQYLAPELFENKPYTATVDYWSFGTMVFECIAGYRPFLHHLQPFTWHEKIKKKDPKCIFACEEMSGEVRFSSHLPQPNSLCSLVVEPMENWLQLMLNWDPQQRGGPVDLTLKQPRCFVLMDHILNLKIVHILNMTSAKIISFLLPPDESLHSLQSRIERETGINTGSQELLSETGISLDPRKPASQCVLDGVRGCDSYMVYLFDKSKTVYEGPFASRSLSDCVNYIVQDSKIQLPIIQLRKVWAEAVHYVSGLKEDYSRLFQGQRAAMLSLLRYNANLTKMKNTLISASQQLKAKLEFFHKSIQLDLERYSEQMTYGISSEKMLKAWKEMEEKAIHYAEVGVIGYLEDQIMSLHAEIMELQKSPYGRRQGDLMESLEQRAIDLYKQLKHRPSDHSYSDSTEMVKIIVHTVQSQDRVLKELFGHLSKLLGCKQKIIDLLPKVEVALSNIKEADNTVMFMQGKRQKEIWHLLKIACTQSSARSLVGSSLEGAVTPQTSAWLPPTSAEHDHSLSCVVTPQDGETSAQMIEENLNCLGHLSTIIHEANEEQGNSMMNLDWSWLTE
The method, boiled down:
as §1

Test [8] concerns the target MAP3K14 (Homo sapiens, UniProt Q99558). The method, boiled down: as §1
The target in test [9] is T7, GSK3B (Homo sapiens, UniProt P49841).
T7 construct: AssayQuant Technologies, Inc. (service provider)
T7 sequence (P49841 whole entry, species assumed): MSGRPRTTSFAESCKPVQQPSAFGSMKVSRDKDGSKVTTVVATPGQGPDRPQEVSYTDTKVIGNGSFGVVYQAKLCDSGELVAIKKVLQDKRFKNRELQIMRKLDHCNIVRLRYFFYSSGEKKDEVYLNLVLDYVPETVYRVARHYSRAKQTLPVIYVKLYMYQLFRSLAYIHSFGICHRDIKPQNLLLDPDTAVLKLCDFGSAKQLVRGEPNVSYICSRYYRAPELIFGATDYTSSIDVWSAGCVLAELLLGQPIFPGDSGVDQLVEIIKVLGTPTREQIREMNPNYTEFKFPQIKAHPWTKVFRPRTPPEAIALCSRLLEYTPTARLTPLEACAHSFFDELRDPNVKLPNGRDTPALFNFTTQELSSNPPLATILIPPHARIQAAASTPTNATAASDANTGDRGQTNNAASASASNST
The gist of the method: as §1

Usually inhibition stands for the relative decrease from the control value, in per cent.

Chain of MAP3K14 (Q99558 whole entry, species assumed): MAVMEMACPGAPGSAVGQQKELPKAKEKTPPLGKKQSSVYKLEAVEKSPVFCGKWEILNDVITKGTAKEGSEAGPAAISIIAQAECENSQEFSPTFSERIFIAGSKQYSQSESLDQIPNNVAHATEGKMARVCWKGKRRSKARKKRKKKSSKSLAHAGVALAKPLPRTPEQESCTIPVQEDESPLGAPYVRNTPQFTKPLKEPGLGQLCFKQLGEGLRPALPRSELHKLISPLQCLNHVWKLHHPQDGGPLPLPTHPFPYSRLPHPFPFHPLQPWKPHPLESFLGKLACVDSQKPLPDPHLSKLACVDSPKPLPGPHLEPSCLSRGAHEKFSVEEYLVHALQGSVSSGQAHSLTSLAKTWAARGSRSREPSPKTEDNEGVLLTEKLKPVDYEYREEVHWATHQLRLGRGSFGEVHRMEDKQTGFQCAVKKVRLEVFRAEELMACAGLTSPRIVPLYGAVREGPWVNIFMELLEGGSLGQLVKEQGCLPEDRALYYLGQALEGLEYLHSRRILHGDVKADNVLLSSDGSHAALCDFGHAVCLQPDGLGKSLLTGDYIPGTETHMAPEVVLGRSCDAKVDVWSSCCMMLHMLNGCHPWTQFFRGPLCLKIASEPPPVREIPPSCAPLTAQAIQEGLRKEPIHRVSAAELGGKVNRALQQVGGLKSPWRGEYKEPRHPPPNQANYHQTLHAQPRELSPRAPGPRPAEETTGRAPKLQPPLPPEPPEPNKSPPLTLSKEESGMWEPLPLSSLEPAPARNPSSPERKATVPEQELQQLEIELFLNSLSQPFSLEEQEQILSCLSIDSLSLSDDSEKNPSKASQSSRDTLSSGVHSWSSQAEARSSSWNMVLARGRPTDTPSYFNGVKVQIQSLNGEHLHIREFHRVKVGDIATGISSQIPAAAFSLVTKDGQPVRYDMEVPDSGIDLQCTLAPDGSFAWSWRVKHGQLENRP
Chain of ERBB4/HER4 (Q15303 26-1308): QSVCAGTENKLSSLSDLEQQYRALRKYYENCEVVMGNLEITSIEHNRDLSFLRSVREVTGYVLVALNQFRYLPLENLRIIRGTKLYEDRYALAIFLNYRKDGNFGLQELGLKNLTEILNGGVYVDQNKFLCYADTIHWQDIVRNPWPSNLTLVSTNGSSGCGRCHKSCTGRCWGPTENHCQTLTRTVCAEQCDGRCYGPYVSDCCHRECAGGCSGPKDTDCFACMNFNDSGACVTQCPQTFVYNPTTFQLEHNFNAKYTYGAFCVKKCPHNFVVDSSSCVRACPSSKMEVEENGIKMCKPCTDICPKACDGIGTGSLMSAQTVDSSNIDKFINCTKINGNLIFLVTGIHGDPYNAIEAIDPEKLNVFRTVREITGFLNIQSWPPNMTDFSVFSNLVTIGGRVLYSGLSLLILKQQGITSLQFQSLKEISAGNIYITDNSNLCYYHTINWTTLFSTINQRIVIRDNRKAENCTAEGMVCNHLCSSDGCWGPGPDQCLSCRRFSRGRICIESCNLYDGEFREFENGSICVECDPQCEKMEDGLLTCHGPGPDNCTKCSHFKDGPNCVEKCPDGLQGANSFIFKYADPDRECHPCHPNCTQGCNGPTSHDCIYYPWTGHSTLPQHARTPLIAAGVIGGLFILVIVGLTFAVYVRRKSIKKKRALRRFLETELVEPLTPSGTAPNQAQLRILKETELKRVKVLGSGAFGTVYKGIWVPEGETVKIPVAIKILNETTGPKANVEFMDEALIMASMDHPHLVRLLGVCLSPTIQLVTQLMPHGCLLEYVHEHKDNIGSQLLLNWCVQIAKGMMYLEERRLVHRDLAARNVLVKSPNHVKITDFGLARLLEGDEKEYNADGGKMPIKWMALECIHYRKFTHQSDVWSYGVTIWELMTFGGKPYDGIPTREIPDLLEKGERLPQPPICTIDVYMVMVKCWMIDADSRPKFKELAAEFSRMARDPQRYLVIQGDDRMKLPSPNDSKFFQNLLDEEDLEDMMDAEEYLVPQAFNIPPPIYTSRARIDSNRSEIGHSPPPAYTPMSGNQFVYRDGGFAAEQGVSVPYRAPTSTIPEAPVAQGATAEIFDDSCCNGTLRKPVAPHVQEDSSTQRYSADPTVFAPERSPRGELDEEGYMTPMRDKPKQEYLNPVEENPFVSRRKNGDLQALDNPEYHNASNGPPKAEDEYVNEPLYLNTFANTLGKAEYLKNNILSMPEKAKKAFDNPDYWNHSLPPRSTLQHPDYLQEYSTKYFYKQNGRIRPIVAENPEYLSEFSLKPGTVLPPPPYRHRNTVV

Turning to `C=CC(=O)N1CCCC(c2c(F)cc(C(N)=O)c3[nH]c4c(c23)CCCCC4)C1` (single isomer, unassigned) [Compound 5-6], the inhibition at 1 µM in test [1] was -22.5%; in test [2] it was 92.8%; in [3], -19.7%; in test [4], -4.9%; in [5] it was -26.4%; in test [6], -14.8%. Further, the inhibition at 1 µM in [7] was 4%; in test [8], 10.5%; in test [9] it was -6%.
As to `C=CC(=O)N1CCC[C@@H](c2c(F)cc(C(N)=O)c3[nH]c4c(c23)CC2(CC4)CC2)C1` [Compound 6-2, (S)-5-(1-acryloylpiperidin-3-yl)-6-fluoro-1,2,4,9-tetrahydrospiro[carbazole-3,1′-cyclopropane]-8-carboxamide], the inhibition at 1 µM in test [1] was 1.7%; in test [2], 97.4%; in test [3], 2.4%; in test [4] it was -13%; in [5] it was -10.4%; in test [6], -10.5%. Further, the inhibition at 1 µM in test [7] is -36.4%; in test [8], -11.5%; in test [9], 18.7%.
In the case of `C=CC(=O)N1CCC[C@@H](c2c(F)cc(C(N)=O)c3[nH]c4c(c23)CCC4)C1` [Compound 10-2, (S)-8-(1-acryloylpiperidin-3-yl)-7-fluoro-1,2,3,4-tetrahydrocyclo-penta[b]indole-5-carboxamide], the inhibition at 1 µM was -9.5% in test [1]; 93.8% in test [2]; 17.1% in [3]; -19.5% in test [4]; -11.1% in [5]; -1.6% in test [6]. The inhibition at 1 µM in test [7] is -14.5%; in test [8], -0.2%; in test [9] it was -12.5%.

The values above are taken from patent US20220009920A1 (GB005, Inc., priority 2020, published 2022).
